Data on 4 compounds can be found in US4081441A, “Antibacterial agents” (priority 1977, dated 1978).

For assay [1], the system named is Pseudomonas aeruginosa. In words: In vitro bactericidal synergism, broth dilution checkerboard. It is filed as cell-based. The conditions noted are these: for MBC: Pseudomonas aeruginosa, drug alone. For orientation: In broth dilution the organism is exposed to a series of concentrations in liquid medium.
Assay [2] deals with Pseudomonas aeruginosa A9843A. It is filed as in vivo, mice. As to conditions: intramuscular, mice; as effective as combination 1.25 mg./kg. BL-P1908 + 2 mg./kg. amikacin.
Assay [3] concerns Pseudomonas aeruginosa. As to conditions: prior art; cited from earlier work.

SMILES strings stand for the structures. Structures can show the parent of a compound that is named as a salt. Where two headings read alike, the source gives them in different places.

On to `NCC[C@H](O)C(=O)N[C@@H]1C[C@H](N)[C@@H](O[C@H]2O[C@H](CN)[C@@H](O)[C@H](O)[C@H]2O)[C@H](O)[C@H]1O[C@H]1O[C@H](CO)[C@@H](O)[C@H](N)[C@H]1O` [Amikacin, 1-[L-(-)-γ-amino-α-hydroxybutryl]kanamycin A], for which the MBC in the assay on Pseudomonas aeruginosa [1] (strain A20552, read-out: Minimum Bactericidal Concentration) was 8 mg/L; with Pseudomonas aeruginosa [1] (strain A21509, read-out: Minimum Bactericidal Concentration), 125 mg/L; with Pseudomonas aeruginosa [1] (strain A21510, read-out: Minimum Bactericidal Concentration), 64 mg/L. The strain sensitivity result with Pseudomonas aeruginosa [1] (strain A9843A) is on record as “sensitive”; in the assay on Pseudomonas aeruginosa [1] (strain A20480), “sensitive”; with Pseudomonas aeruginosa [1] (strain A20552) it was “sensitive”; in the assay on Pseudomonas aeruginosa [1] (strain A20620), “resistant”; in the assay with Pseudomonas aeruginosa [1] (strain A21509), “resistant”; in the assay on Pseudomonas aeruginosa [1] (strain A21510), “resistant”. The “equally effective dosage, drug alone” value in assay [2] turned out to be 8 mg/kg.

As for `NCC[C@H](O)C(=O)N[C@@H]1C[C@H](N)[C@@H](O[C@H]2O[C@H](CN)[C@@H](O)[C@H](O)[C@H]2O)[C@H](O)[C@H]1O[C@H]1O[C@H](CO)[C@@H](O)[C@H](N)[C@H]1O` [amikacin sulfate], the MBC with Pseudomonas aeruginosa [1] (read-out: Minimum Bactericidal Concentration, strain A9843A) stood at 4 mg/L.

Turning to `CC1(C)S[C@@H]2[C@H](NC(=O)C(c3ccccc3)S(=O)(=O)O)C(=O)N2[C@H]1C(=O)O` (stereo partly shown) [sulbenicillin], the “potency against Pseudomonas aeruginosa” value in the assay on Pseudomonas aeruginosa [3] is given as “relatively low potency”.

As for `CC1(C)S[C@@H]2[C@H](NC(=O)[C@H](C(=O)O)c3ccsc3)C(=O)N2[C@H]1C(=O)O` [ticarcillin], the “potency against Pseudomonas aeruginosa” value with Pseudomonas aeruginosa [3] is recorded as “relatively low potency”.
